These results are taken from ChEMBL document CHEMBL5370641, “Structure-Based Optimization and Biological Evaluation of Potent and Selective MMP-7 Inhibitors for Kidney Fibrosis” (J Med Chem, 2023).

Data set [1] deals with Mus musculus. Description: Antifibrotic activity against unilateral ureteric obstruction induced C57BL/6J mouse model of renal fibrosis assessed as reduction in renal collagen at 0.1 mg/ml preadministered with compound via drinking water for 7 days followed by UUO surgery and measured after 7 days. The class given is functional, organism-based. To be noted: route po, time 14.0 day.

Data set [2] is filed under the species Homo sapiens. The experiment in a line: Selectivity ratio of IC50 for inhibition of recombinant human MMP12 to IC50 for inhibition of recombinant human MMP7.
The target of another data set is Neutrophil collagenase (Homo sapiens, UniProt P22894). Description: Inhibition of recombinant human MMP8 using MOCAc-Pro-Leu-Gly-Leu-A2pr-(Dnp)-Ala-Arg-NH2 as substrate preincubated with compound for 15 mins followed by substrate addition and measured after 1 hrs by fluorescence based analysis.
Sequence of Neutrophil collagenase (P22894 whole entry): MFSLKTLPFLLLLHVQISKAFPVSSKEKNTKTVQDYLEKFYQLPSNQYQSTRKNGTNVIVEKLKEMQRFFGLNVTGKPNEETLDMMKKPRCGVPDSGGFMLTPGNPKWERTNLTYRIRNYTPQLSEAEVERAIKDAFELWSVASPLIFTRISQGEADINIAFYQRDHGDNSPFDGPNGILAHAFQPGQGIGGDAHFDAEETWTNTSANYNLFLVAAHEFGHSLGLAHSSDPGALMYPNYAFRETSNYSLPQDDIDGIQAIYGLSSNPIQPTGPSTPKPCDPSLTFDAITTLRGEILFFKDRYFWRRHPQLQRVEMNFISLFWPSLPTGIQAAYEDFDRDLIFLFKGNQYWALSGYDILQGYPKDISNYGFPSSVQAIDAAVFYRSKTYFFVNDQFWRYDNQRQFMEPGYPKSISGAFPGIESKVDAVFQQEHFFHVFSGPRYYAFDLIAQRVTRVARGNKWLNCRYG
The species named for data set [3] is Homo sapiens. The experiment in a line: Selectivity ratio of IC50 for inhibition of recombinant human MMP2 to IC50 for inhibition of recombinant human MMP7.
The species entered for data set [4] is Homo sapiens. The experiment in a line: Selectivity ratio of IC50 for inhibition of recombinant human MMP9 to IC50 for inhibition of recombinant human MMP7.
The target of the next data set is T1, Interstitial collagenase (Homo sapiens, UniProt P03956).
T1 sequence (P03956 whole entry): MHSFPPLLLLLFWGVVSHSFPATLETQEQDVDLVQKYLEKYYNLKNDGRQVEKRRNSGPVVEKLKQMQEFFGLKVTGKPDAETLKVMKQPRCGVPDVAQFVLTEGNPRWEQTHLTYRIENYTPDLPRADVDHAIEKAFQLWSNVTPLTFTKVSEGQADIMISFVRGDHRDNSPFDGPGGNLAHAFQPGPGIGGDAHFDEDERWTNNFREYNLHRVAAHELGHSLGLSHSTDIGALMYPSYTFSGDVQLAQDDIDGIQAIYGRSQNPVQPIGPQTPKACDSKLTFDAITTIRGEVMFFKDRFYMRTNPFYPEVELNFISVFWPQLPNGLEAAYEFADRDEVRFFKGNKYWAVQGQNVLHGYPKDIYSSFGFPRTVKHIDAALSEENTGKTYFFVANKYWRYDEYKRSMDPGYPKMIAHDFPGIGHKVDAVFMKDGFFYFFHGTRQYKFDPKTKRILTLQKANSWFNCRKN
The experiment in a line: Inhibition of recombinant human MMP1 using MOCAc-Lys-Pro-Leu-Gly-Leu-A2pr(Dnp)-Ala-Arg-NH2 as substrate preincubated with compound for 15 mins followed by substrate addition and measured after 1 hrs by fluorescence based analysis.

Data set [5] addresses Matrix metalloproteinase-14 (Homo sapiens, UniProt P50281). Description: Inhibition of recombinant human MMP14 using MOCAc-Lys-Pro-Leu-Gly-Leu-A2pr(Dnp)-Ala-Arg-NH2 as substrate preincubated with compound for 15 mins followed by substrate addition and measured after 1 hrs by fluorescence based analysis.
Data set [6] addresses 72 kDa type IV collagenase (Homo sapiens, UniProt P08253). Description: Inhibition of recombinant human MMP2 using MOCAc-Pro-Leu-Gly-Leu-A2pr-(Dnp)-Ala-Arg-NH2 as substrate preincubated with compound for 15 mins followed by substrate addition and measured after 1 hrs by fluorescence based analysis.
The species entered for data set [7] is Homo sapiens. The experiment in a line: Selectivity ratio of IC50 for inhibition of recombinant human MMP14 to IC50 for inhibition of recombinant human MMP7.
The species entered for data set [8] is Homo sapiens. Description: Selectivity ratio of IC50 for inhibition of recombinant human MMP1 to IC50 for inhibition of recombinant human MMP7.
For the next data set, the target named is Collagenase 3 (Homo sapiens, UniProt P45452). The experiment in a line: Inhibition of recombinant human MMP13 using MOCAc-Pro-Leu-Gly-Leu-A2pr-(Dnp)-Ala-Arg-NH2 as substrate preincubated with compound for 15 mins followed by substrate addition and measured after 1 hrs by fluorescence based analysis.
For data set [9], the species on record is Homo sapiens. Description: Selectivity ratio of IC50 for inhibition of recombinant human MMP3 to IC50 for inhibition of recombinant human MMP7.
A further data set concerns the target Stromelysin-1 (Homo sapiens, UniProt P08254). Description: Inhibition of recombinant human MMP3 using MOCAc-Arg-Pro-Lys-Pro-Val-Glu-Nva-Trp-Arg-Lys(Dnp)-NH2 as substrate preincubated with compound for 15 mins followed by substrate addition and measured after 1 hrs by fluorescence based analysis.
The target of data set [10] is T2, Matrilysin (Homo sapiens, UniProt P09237).
T2 sequence (P09237 whole entry): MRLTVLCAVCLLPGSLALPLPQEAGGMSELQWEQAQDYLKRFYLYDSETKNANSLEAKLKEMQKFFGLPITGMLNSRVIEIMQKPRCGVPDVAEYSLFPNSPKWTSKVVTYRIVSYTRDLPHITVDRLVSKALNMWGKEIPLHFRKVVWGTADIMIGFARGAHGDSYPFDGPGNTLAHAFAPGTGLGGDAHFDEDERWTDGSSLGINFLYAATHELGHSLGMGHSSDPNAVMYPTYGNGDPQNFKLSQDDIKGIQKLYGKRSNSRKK
Description: Inhibition of recombinant human MMP7 using MOCAc-Pro-Leu-Gly-Leu-A2pr-(Dnp)-Ala-Arg-NH2 as substrate preincubated with compound for 15 mins followed by substrate addition and measured after 2 hrs by fluorescence based analysis.

For data set [11], the species on record is Homo sapiens. The experiment in a line: Selectivity ratio of IC50 for inhibition of recombinant human MMP13 to IC50 for inhibition of recombinant human MMP7.
In data set [12] the target is Macrophage metalloelastase (Homo sapiens, UniProt P39900). Description: Inhibition of recombinant human MMP12 using MOCAc-Pro-Leu-Gly-Leu-A2pr-(Dnp)-Ala-Arg-NH2 as substrate preincubated with compound for 15 mins followed by substrate addition and measured after 1 hrs by fluorescence based analysis.
Sequence of Macrophage metalloelastase (P39900 whole entry): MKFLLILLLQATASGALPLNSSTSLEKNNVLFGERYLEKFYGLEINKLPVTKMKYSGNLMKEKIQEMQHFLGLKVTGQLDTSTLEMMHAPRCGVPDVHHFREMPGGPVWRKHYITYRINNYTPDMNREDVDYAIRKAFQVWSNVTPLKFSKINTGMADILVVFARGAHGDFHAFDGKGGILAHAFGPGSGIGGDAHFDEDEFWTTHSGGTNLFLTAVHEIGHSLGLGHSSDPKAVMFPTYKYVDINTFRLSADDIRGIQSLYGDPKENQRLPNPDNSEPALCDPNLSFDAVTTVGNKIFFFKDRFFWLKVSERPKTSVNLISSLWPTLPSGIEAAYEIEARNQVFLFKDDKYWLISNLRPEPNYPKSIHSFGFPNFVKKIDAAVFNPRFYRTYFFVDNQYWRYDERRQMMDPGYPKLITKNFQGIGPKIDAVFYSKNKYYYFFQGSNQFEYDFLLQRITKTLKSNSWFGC
The target of data set [13] is Matrix metalloproteinase-9 (Homo sapiens, UniProt P14780). Description: Inhibition of recombinant human MMP9 using MOCAc-Pro-Leu-Gly-Leu-A2pr-(Dnp)-Ala-Arg-NH2 as substrate preincubated with compound for 15 mins followed by substrate addition and measured after 1 hrs by fluorescence based analysis.
Sequence of Matrix metalloproteinase-9 (P14780 whole entry): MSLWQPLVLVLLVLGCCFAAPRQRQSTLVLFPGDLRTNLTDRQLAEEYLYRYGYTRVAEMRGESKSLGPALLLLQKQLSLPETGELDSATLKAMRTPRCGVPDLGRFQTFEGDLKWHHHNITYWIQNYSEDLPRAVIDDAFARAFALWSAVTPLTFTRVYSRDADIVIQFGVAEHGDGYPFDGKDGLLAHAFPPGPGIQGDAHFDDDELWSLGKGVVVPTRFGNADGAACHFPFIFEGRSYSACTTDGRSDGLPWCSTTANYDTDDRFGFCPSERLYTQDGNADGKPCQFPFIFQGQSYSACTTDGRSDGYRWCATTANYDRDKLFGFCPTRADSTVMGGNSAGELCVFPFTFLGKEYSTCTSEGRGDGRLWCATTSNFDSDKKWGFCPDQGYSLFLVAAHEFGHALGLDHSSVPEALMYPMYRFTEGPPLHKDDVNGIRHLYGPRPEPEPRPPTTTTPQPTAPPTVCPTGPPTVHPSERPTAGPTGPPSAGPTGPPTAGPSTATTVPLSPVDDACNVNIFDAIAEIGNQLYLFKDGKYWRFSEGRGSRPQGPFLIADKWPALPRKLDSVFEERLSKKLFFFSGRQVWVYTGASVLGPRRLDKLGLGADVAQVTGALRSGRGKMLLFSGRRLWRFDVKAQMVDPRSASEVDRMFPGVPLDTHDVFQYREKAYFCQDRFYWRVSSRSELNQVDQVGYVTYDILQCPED
Data set [14] is filed under the species Homo sapiens. Description: Selectivity ratio of IC50 for inhibition of recombinant human MMP8 to IC50 for inhibition of recombinant human MMP7.
A short description of data set [15]: Metabolic stability in human serum assessed as parent compound remaining at 5 uM incubated for 4 hrs by LC-MS/MS analysis. The class given is ADME, cell-free. As to conditions: read-out: Stability.
Data set [16] has as its system Mus musculus. Description: Antifibrotic activity against unilateral ureteric obstruction induced C57BL/6J mouse model of renal fibrosis assessed as reduction in renal collagen at 10 to 100 mg/kg/day, SC preadministered with compound for 7 days followed by UUO surgery and measured after 7 days. As to conditions: dose 10-100 mg/kg/day, time 14.0 day. The class given is functional, organism-based.

The nature of data set [17]: Metabolic stability in rat liver microsome assessed as intrinsic clearance at 1 uM incubated for 15 mins by LC-MS analysis. The class given is ADME. As to conditions: liver microsomes, read-out: CLH (converted).
Data set [18] can be described thus: Protein binding in mouse serum incubated for 4 hrs by equilibrium dialysis based LC-MS/MS analysis. The data set is classed as ADME, cell-free. As to conditions: read-out: PB (converted).
Data set [19] is described as follows: Lipophilicity, logD of compound at pH 7.4 by HPLC-UV analysis. The class given is physicochemical. As to conditions: buffer.
The target in data set [20] is T3, Matrilysin (Mus musculus, UniProt Q10738).
T3 sequence (Q10738 whole entry): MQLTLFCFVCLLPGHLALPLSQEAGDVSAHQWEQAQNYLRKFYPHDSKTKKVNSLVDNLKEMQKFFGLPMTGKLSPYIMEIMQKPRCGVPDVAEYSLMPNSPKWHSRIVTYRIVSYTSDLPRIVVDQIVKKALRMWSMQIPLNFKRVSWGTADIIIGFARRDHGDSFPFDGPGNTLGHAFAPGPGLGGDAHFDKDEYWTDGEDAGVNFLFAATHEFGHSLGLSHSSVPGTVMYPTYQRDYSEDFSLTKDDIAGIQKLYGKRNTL
The experiment in a line: Inhibition of mouse MMP7 using MOCAc-Pro-Leu-Gly-Leu-A2pr-(Dnp)-Ala-Arg-NH2 as substrate preincubated with compound for 15 mins followed by substrate addition and measured after 2 hrs by fluorescence based analysis.

The nature of data set [21]: Total clearance in Sprague-Dawley rat at 1 mg/kg, iv administered as single dose by LC-MS/MS analysis. To be noted: in vivo. The data set is classed as ADME, organism-based.
Data set [22] in a line: Metabolic stability in rat hepatocytes assessed as intrinsic clearance at 1 uM incubated for 1 to 4 hrs by LC-MS/MS analysis. The data set is classed as ADME, cell-based, Hepatocyte. To be noted: time 1-4 hrs, read-out: CLH (converted).
The nature of data set [23]: Volume of distribution at steady state in Sprague-Dawley rat at 1 mg/kg, iv administered as single dose by LC-MS/MS analysis. The class given is ADME, organism-based. As to conditions: in vivo, read-out: Vdss.
Data set [24] is described as follows: Protein binding in human serum incubated for 4 hrs by equilibrium dialysis based LC-MS/MS analysis. To be noted: read-out: PB (converted). The data set is classed as ADME, cell-free.
A short description of data set [25]: Metabolic stability in human liver microsome assessed as intrinsic clearance at 1 uM incubated for 15 mins by LC-MS analysis. The data set is classed as ADME. As to conditions: liver microsomes, read-out: CLH (converted).

Structures are written as SMILES. Calls of active or inactive are those of the source. The rule behind the calls is not given here. Numbered stars: 1 amine (or outer) side, 2 acyl side, 3 side chain; on linkers, the order of the positions; unused ones are H or OH. Square brackets hold non-standard residues; d marks the D form. Peptide text beside a SMILES is read from it. * marks the point of attachment. Benzenesulfonyl(4-Cl,3-CF3) = O=S(=O)(c1ccc(Cl)c(C(F)(F)F)c1)*; γGlu = O=C(O)[C@H](CCC(=O)[*:2])N[*:1]; 4Pal = N[C@@H](Cc1ccncc1)C(=O)O; Tle = CC(C)(C)[C@H](N)C(=O)O; β3hP = O=C(O)C[C@@H]1CCCN1

Sequence of 72 kDa type IV collagenase (P08253 whole entry): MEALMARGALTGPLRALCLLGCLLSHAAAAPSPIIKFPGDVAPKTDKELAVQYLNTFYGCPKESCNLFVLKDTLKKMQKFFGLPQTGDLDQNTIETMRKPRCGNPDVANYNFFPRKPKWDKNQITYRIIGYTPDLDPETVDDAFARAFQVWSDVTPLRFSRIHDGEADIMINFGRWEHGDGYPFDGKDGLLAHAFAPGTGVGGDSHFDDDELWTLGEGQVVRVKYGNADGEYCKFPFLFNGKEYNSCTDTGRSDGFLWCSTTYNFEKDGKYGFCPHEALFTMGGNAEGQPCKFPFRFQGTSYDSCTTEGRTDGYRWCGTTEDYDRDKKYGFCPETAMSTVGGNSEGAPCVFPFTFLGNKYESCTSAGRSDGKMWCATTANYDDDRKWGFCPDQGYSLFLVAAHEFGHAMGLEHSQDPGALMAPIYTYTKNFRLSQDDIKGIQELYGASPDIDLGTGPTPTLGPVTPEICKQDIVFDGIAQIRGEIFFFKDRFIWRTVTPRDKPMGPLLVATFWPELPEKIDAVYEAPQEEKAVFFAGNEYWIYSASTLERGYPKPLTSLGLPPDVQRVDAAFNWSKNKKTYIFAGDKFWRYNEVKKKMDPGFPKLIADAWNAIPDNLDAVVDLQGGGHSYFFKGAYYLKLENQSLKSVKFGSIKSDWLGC
Sequence of Stromelysin-1 (P08254 whole entry): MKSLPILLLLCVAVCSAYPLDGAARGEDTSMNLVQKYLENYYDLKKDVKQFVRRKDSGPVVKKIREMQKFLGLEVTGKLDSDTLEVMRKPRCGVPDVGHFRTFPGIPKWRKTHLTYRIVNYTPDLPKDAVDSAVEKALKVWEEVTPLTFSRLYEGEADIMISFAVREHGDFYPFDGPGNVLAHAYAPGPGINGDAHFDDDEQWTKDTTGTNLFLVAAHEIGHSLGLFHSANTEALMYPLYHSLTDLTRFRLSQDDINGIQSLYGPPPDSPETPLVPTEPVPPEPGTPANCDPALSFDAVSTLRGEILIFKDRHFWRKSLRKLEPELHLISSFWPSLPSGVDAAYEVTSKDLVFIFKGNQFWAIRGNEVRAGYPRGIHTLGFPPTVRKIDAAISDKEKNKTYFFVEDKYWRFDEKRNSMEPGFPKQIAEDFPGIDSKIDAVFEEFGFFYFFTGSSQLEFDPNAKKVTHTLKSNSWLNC

Turning to `CCCCc1nc(Cl)c(CO)n1Cc1ccc(-c2ccccc2-c2nnn[nH]2)cc1`, in the data set with Mus musculus [1], the outcome was Active.
Turning to `CC(C)C[C@H](NC(=O)CNC(=O)CC[C@H](NS(=O)(=O)c1ccc(Cl)c(C(F)(F)F)c1)C(=O)O)C(=O)N[C@H](C(=O)N1CCC[C@H]1CC(N)=O)C(C)(C)C` ({Benzenesulfonyl(4-Cl,3-CF3)-γGlu}-GL[Tle][β3hP]-NH2), the Ratio IC50 was 380 in the data set listed under Homo sapiens [2]; 1100 in the data set listed under Homo sapiens [3]; greater than 13000 in the data set filed under Homo sapiens [4]; 31 in the data set filed under Homo sapiens [7]; 12000 in the data set filed under Homo sapiens [8]; greater than 13000 in the data set filed under Homo sapiens [9]. Also, the Ratio IC50 in the data set filed under Homo sapiens [11] is greater than 13000; in the data set listed under Homo sapiens [14] it was 7100. Further, the IC50 on Neutrophil collagenase was 55 µM; on Interstitial collagenase, 92 µM; in data set [5], 0.24 µM; in data set [6], 8.5 µM; at Collagenase 3, greater than 100 µM; at Stromelysin-1, greater than 100 µM. Moreover, the IC50 was 0.0077 µM at Matrilysin [10], 2.9 µM in data set [12] and greater than 100 µM in [13].
As for `CC(C)(C)[C@H](NC(=O)[C@H](Cc1ccncc1)NC(=O)CNC(=O)CC[C@H](NS(=O)(=O)c1ccc(Cl)c(C(F)(F)F)c1)C(=O)O)C(=O)N1CCC[C@H]1CC(N)=O` ({Benzenesulfonyl(4-Cl,3-CF3)-γGlu}-G[4Pal][Tle][β3hP]-NH2), the Ratio IC50 in the data set filed under Homo sapiens [2] is 460; in the data set listed under Homo sapiens [3], 2700; in the data set filed under Homo sapiens [4], greater than 36000; in the data set filed under Homo sapiens [7], 300; in the data set listed under Homo sapiens [8] it was greater than 36000; in the data set filed under Homo sapiens [9], greater than 36000. Besides, the Ratio IC50 in the data set listed under Homo sapiens [11] and in the data set filed under Homo sapiens [14] was greater than 36000 throughout. Besides, the IC50 was greater than 100 µM on Neutrophil collagenase; greater than 100 µM on Interstitial collagenase; 0.85 µM in data set [5]; 7.5 µM in data set [6]; greater than 100 µM on Collagenase 3; greater than 100 µM at Stromelysin-1. The IC50 was 0.0028 µM on Matrilysin [10], 1.3 µM in data set [12], 0.049 µM on Matrilysin [20] and greater than 100 µM in data set [13]. Besides, the remaining at 4 h, 5 µM in [15] was 101%. Moreover, the outcome with Mus musculus [16] was Active. Also, the CLint scaled at 1 µM in [17] is 23.6 mL/min/kg; in data set [22], 11 mL/min/kg; in [25] it was 13.6 mL/min/kg. For the same compound, the fraction unbound at 4 h is 0.368 in data set [18] and 0.266 in [24]. This compound also came in with a logD in [19] of 1.04. The clearance in data set [21] is 85.5 mL/min/kg. Further, in data set [23], the Vd is 1.09 L/kg.
